Test system: rhinovirus serotype 1B
Test: plaque reduction (PR) test
Format: cell-based
Conditions: Enterovirus, read-out: PR(ED50)
Protocol: (§1) Activity may be detected by the plaque inhibition (PI) test and measured by the plaque reduction (PR) test. Both assays involve the formation of a monolayer cell culture in a petri dish followed by infection with a virus suspension, and then overlaying the culture with nutrient agarose in the form of a gel. This gel ensures that there is no spread of virus throughout the culture and thus areas of localised cell destruction, or plaques, are formed.
Detectable activity is measured with the plaque reduction assay. A range of concentrations of compound of known molarity are incorporated in the nutrient agarose overlay. Plaque suppression is proportional to compound concentration. Plaque numbers are expressed as percentages of a control, and a dose response curve may be drawn. From this curve 50% of the effective dose(ED50) may be estimated.

SMILES | EC50
c1ccc(N2CCc3ccccc3C2)cc1 [Example 4, 2-phenyl-1,2,3,4-tetrahydroisoquinoline] | 70 nM

Same assay, conditions: Enterovirus; Activity versus rhinovirus serotype 1B; monolayer cell culture, compound in nutrient agarose overlay; read-out: PR(ED50)

SMILES | EC50
c1ccc(C2COc3ccccc3C2)cc1 (centres unmarked) [Example 27, isoflavan] | 820 nM
Clc1ccc2c(c1)CCN(c1ccccc1)C2 [Example 18, 6-chloro-2-phenyl-1,2,3,4-tetrahydroisoquinoline] | 570 nM
Cc1cccc(C)c1N1CCc2ccccc2C1 [Example 13, 1,2,3,4-tetrahydro-2-(2,6-dimethylphenyl)isoquinoline] | 75 nM
Clc1ccc(C2CCc3cc(Cl)ccc3S2)cc1 (centres unmarked) [Example 3, 4',6-dichlorothioflavan] | 44 nM
Oc1ccc(N2CCc3ccccc3C2)cc1 [Example 15, 1,2,3,4-tetrahydro-2-(4-hydroxyphenyl)isoquinoline] | 1850 nM
COc1ccc(N2CCc3ccccc3C2)cc1 [Example 12, 1,2,3,4-tetrahydro-2-(4-methoxyphenyl)isoquinoline] | 2450 nM
Clc1ccc2c(c1)CN(c1ccccc1)CC2 [Example 21, 7-chloro-2-phenyl-1,2,3,4-tetrahydroisoquinoline] | 110 nM
COc1ccc(N2CCc3ccccc3C2)c(OC)c1 [Example 16, 1,23,4-tetrahydro-2-(2-4-dimethoxyphenyl)isoquinoline] | 8000 nM
c1ccc(C2CCc3ccccc3S2)cc1 (centres unmarked) [Example 1, thioflavan] | 28 nM
Cc1ccc(N2CCc3ccccc3C2)cc1 [Example 11, 1,2,3,4-tetrahydro-2-(4-methylphenyl)isoquinoline] | 1000 nM
Clc1ccc(N2CCc3cc(Cl)ccc3C2)cc1 [Example 19, 1,2,3,4-tetrahydro-2-(4-chlorophenyl)-6-chloroisoquinoline] | 50 nM
c1ccc(C2Cc3ccccc3CN2)cc1 (centres unmarked) [Example 26, 3-phenyl-1,2,3,4-tetrahydroisoquinoline] | 290 nM
Fc1ccc(N2CCc3cc(Cl)ccc3C2)cc1 [Example 20, 1,2,3,4-tetrahydro-2-(4-fluorophenyl)-6-chloroisoquinoline] | 210 nM
Clc1ccc(N2CCc3ccc(Cl)cc3C2)cc1 [Example 22, 7-chloro-2-(4-chlorophenyl)-1,2,3,4-tetrahydroisoquinoline] | 130 nM
Clc1ccc(N2CCc3ccccc3C2)cc1 [Example 7, 1,2,3,4-tetrahydro-2-(4-chlorophenyl)isoquinoline] | 100 nM
Fc1ccc(N2CCc3ccccc3C2)cc1 [Example 8, 1,2,3,4-tetrohydro-2-(4-fluorophenyl)isoquinoline] | 210 nM
c1ccc(C2CCc3ccccc3N2)cc1 (centres unmarked) [Example 24, 1,2,3,4-tetrahydro-2-phenylquinoline] | 330 nM
Clc1ccc2c(c1)CN(c1ccc(Cl)c(Cl)c1)CC2 [Example 23, 7-chloro-2-(3,4-dichlorophenyl)-1,2,3,4-tetrahydroisoquinoline] | 620 nM

Test system: virus
Test: Intranasal administration - simulation in vitro (plaque inhibition test, compound applied to the lids of the petri dishes)
Format: cell-based
Conditions: 1 μg applied in ethanol to the lids of the petri dishes; confluent sheet of cells covered with agarose gel
From the text: as §1
In the plaque inhibition test a filter paper disc which holds 0.01 ml when impregnated with a solution of compound is placed on top of the agarose gel. The compound may then diffuse throughout the gel so that its greatest concentration will be around the disc and its lowest concentration towards the periphery of the petri dish. The efficacy of the compound may be detected by observing the zone of inhibition of plaque formation.
Petri dishes were prepared, as for the plaque inhibition test and the confluent sheet of cells was covered with a layer of agarose gel. The compound, 2-phenyltetrahydroisoquinoline (1 μg) was dissolved in ethanol, and applied to the lids of the petri dishes. When the ethanol had evaporated, leaving the compound spread over the inside of the lids, these were replaced on the petri dishes.

SMILES | inhibition of plaque formation
c1ccc(N2CCc3ccccc3C2)cc1 [Example 4, 2-phenyl-1,2,3,4-tetrahydroisoquinoline] | total inhibition of plaque formation

Source: US4801593A, “Chemotherapeutic agents” (Burroughs Wellcome Co., priority 1979, dated 1989)
